ChEMBL document CHEMBL1146546, “Warangalone, the isoflavonoid anti-inflammatory principle of Erythrina addisoniae stem bark” (J Nat Prod, 2003)

How the values were obtained:
Mus musculus [1] = experiment: Antiinflammatory activity against Naja mossambica PLA2-induced Swiss mouse paw edema assessed as inhibition of paw volume at 5 mg/kg, ip administered before 30 mins of PLA2 challenge measured after 30 mins relative to control; format: functional; conditions: 0.5 h, route intraperitoneal
Mus musculus [2] = experiment: Antiinflammatory activity against Naja mossambica PLA2-induced Swiss mouse paw edema assessed as inhibition of paw volume at 5 mg/kg, ip administered before 30 mins of PLA2 challenge measured after 60 mins relative to control; format: functional; conditions: route intraperitoneal
Mus musculus [3] = experiment: Antiinflammatory activity against carrageenan-induced Swiss mouse paw edema assessed as inhibition of paw volume at 10 mg/kg, po administered 1 hr before carrageenan challenge measured after 1 hr relative to control; format: functional
Mus musculus [4] = species on record: Mus musculus; experiment: Antiinflammatory activity against Swiss mouse chronic dermatitis model assessed as inhibition of TPA-induced tissue myeloperoxidase activity at 0.5 mg/ear applied twice daily for 4 days measured after 6 hrs relative to control; format: functional
Mus musculus [5] = experiment: Antiinflammatory activity against TPA-induced ear edema in Swiss mouse chronic dermatitis model assessed as inhibition of increase in ear weight; format: functional
Mus musculus [6] = experiment: Antiinflammatory activity against TPA-induced ear edema Swiss mouse chronic dermatitis model assessed as inhibition of increase in ear weight at 0.5 mg/ear relative to control; format: functional
Mus musculus [7] = experiment: Antiinflammatory activity against carrageenan-induced Swiss mouse paw edema assessed as inhibition of paw volume at 10 mg/kg, po administered 1 hr before carrageenan challenge measured after 5 hrs relative to control; format: functional
Mus musculus [8] = experiment: Antiinflammatory activity against carrageenan-induced Swiss mouse paw edema assessed as inhibition of paw volume at 10 mg/kg, po administered 1 hr before carrageenan challenge measured after 3 hrs relative to control; format: functional
[9] = Inhibition of PKC catalytic subunit
Mus musculus [10] = experiment: Antiinflammatory activity against TPA-induced ear edema in Swiss mouse chronic dermatitis model assessed as inhibition of increase in ear weight at 0.25 mg/ear relative to control; format: functional
Mus musculus [11] = species on record: Mus musculus; experiment: Antiinflammatory activity against Swiss mouse chronic dermatitis model assessed as inhibition of TPA-induced tissue myeloperoxidase activity at 0.25 mg/ear applied twice daily for 4 days measured after 6 hrs relative to control; format: functional
[12] = Inhibition of calcium ionophore A-23187/calcium-stimulated LTB4 production in rat polymorphonuclear leukocytes; format: functional
Platelet = experiment: Inhibition of calcium ionophore A-23187/calcium-stimulated 12-hydroxyheptadecatrienoic acid production in human platelets; format: functional

SMILES | inhibition in vivo at 5 mg/kg (Mus musculus [1]) [%] | inhibition in vivo at 5 mg/kg (Mus musculus [2]) [%] | inhibition in vivo at 10 mg/kg (Mus musculus [3]) [%] | inhibition (INH) (Mus musculus [4]) [%] | ID50 (Mus musculus [5]) [µmol] | inhibition (INH) (Mus musculus [6]) [%] | inhibition in vivo at 10 mg/kg (Mus musculus [7]) [%] | inhibition in vivo at 10 mg/kg (Mus musculus [8]) [%] | IC50 [9] [µM] | inhibition (INH) (Mus musculus [10]) [%] | inhibition (INH) (Mus musculus [11]) [%] | inhibition (INH) [12] [%] | inhibition (INH) (Platelet) [%]
CN1CCC(=C2c3ccccc3C=Cc3ccccc32)CC1 [CYPROHEPTADINE] | 66 | 63 |  |  |  |  |  |  |  |  |  |  | 
COc1ccc2c(c1)c(CC(=O)O)c(C)n2C(=O)c1ccc(Cl)cc1 [INDOMETHACIN] |  |  | 14 | 36 | 0.29 | 82 | 31 | 60 |  |  |  |  | 
CC(C)=CCc1c2c(c(O)c3c(=O)c(-c4ccc(O)cc4)coc13)C=CC(C)(C)O2 [WARANGALONE] | 21 | 68 |  |  | 0.54 |  |  |  | 3.5 | 78 | 41 | <20 | <20
